Measurements from US9169260B2 (MERCK SHARP & DOHME CORP., priority 2011, dated 2015).

Target: GST tagged IRAK-4 (Homo sapiens (Human), UniProt Q9NWZ3)
Test: IRAK-4 Kinase Assay (IMAP fluorescence polarization)
Type: biochemical
Conditions: 100 μM ATP, 30 minutes at 25° C.
Experimental: The kinase activity of IRAK-4 is determined by its ability to catalyze the phosphorylation of a fluorescent polypeptide substrate. The extent of phosphorylation is measured using the IMAP technology (Molecular Devices) where the phosphorylated fluorescent substrate binds to the large M(III)-based nanoparticles which reduces the rotational speed of the substrate and thus increases its fluorescent polarization (FP).
20 μl reaction mixture contains 10 mM TriHCl, pH 7.2, 0.5 nM GST tagged IRAK-4 (SignalChem), 100 nM fluorescent peptide substrate (RP7030, Molecular Devices), 100 μM ATP, 1 mM DTT, 1 mM MgCl2, and 0.01% Tween 20. The reaction is initiated by the addition of ATP. After incubation for 30 minutes at 25° C., 60 μl of Progressive IMAP Reagent (Molecular Devices) is added to stop the reaction. Change in RP7030's FP is determined by a FP reader (Analyst HT, LH, BioSystems).

Sequence of GST tagged IRAK-4 (Q9NWZ3 whole entry): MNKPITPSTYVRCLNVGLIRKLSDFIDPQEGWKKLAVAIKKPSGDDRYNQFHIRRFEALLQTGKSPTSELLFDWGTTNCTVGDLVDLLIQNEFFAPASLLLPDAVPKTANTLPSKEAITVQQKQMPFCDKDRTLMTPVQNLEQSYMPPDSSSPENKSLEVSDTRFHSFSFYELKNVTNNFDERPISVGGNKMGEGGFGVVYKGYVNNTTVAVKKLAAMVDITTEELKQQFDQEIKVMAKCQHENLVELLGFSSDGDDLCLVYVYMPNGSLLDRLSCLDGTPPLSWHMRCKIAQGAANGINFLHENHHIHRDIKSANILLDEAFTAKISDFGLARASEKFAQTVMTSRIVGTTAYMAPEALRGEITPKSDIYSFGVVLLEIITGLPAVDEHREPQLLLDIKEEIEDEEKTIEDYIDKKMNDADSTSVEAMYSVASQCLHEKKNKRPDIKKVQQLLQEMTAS

| Compound | IC50 (μM) [µM] | IC50 [µM] |
| --- | --- | --- |
| Cc1ccc(-n2nc(C3CN(S(=O)(=O)C4CCCC4)C3)cc2NC(=O)c2cnn3cccnc23)cc1 [Example 85, N-(3-(1-(cyclopentylsulfonyl)azetidin-3-yl)-1-(p-tolyl)-1H-pyrazol-5-yl)pyrazolo[1,5-a]pyrimidine-3-carboxamide] | < 1 |  |
| Cc1ccc(-n2nc(C3CCN(S(C)(=O)=O)CC3)cc2NC(=O)c2cnn3cccnc23)c(F)c1 [Example 57, N-(1-(2-fluoro-4-methylphenyl)-3-(1-(methylsulfonyl)piperidin-4-yl)-1H-pyrazol-5-yl)pyrazolo[1,5-a]pyrimidine-3-carboxamide] |  | < 0.1 |
| Cc1ccc(-n2nc(C3CCN(Cc4ccncc4)CC3)cc2NC(=O)c2cnn3cccnc23)cc1 [Example 224, N-(3-(1-(pyridin-4-ylmethyl)piperidin-4-yl)-1-(p-tolyl)-1H-pyrazol-5-yl)pyrazolo[1,5-a]pyrimidine-3-carboxamide] | < 1 |  |
| Cc1ccc(-n2nc(C3CN(Cc4cocn4)C3)cc2NC(=O)c2cnn3cccnc23)cc1 [Example 318, N-{1-(4-methylphenyl)-3-[1-(1,3-oxazol-4-ylmethyl)azetidin-3-yl]-1H-pyrazol-5-yl}pyrazolo[1,5-a]pyrimidine-3-carboxamide] | < 1 |  |
| Cc1ccc(-n2nc(C3CCN(C4CCC(F)(F)CC4)CC3)cc2NC(=O)c2cnn3cccnc23)cc1 [Example 259, N-{3-[1-(4,4-difluorocyclohexyl)piperidin-4-yl]-1-(4-methylphenyl)-1H-pyrazol-5-yl}pyrazolo[1,5-a]pyrimidine-3-carboxamide] | < 1 |  |
| COc1ccc(-n2nc(C3CCN(S(=O)(=O)C(C)C)CC3)cc2NC(=O)c2cnn3cccnc23)cc1 [Example 23, N-(3-(1-(isopropylsulfonyl)piperidin-4-yl)-1-(4-methoxyphenyl)-1H-pyrazol-5-yl)pyrazolo[1,5-a]pyrimidine-3-carboxamide] |  | < 0.1 |
| Cc1ccc(-n2nc(C3CCN(S(=O)(=O)C4CC4)CC3)cc2NC(=O)c2cnn3cccnc23)cc1 [Example 26, N-(3-(1-(cyclopropylsulfonyl)piperidin-4-yl)-1-(p-tolyl)-1H-pyrazol-5-yl)pyrazolo[1,5-a]pyrimidine-3-carboxamide] | < 1 |  |
| Cc1ccc(-n2nc(C3=CCN(C)CC3)cc2NC(=O)c2cnn3cccnc23)cc1 [Example 140, N-(3-(1-methyl-1,2,3,6-tetrahydropyridin-4-yl)-1-(p-tolyl)-1H-pyrazol-5-yl)pyrazolo[1,5-a]pyrimidine-3-carboxamide] |  | < 0.1 |
| Cc1ccc(-n2nc(C3CCN(C4CCC(N(C)S(C)(=O)=O)CC4)CC3)cc2NC(=O)c2cnn3cccnc23)cc1 (centres unmarked) [Example 251, N-[3-(1-{4-[methyl(methylsulfonyl)amino]cyclohexyl}piperidin-4-yl)-1-(4-methylphenyl)-1H-pyrazol-5-yl]pyrazolo[1,5-a]pyrimidine-3-carboxamide] |  | < 0.1 |
| [2H]C([2H])([2H])c1ccc(-n2nc(N3CCN(S(C)(=O)=O)CC3)cc2NC(=O)c2cnn3cccnc23)nc1 [Example 200, N-(1-(5-trideuteromethylpyridin-2-yl)-3-(4-(methylsulfonyl)piperazin-1-yl)-1H-pyrazol-5-yl)pyrazolo[1,5-a]pyrimidine-3-carboxamide] |  | < 0.1 |
| COc1cc(-c2cc(NC(=O)c3cnn4cccnc34)n(-c3ccc(C)cc3)n2)ccn1 [Example 129, N-(3-(2-methoxypyridin-4-yl)-1-(p-tolyl)-1H-pyrazol-5-yl)pyrazolo[1,5-a]pyrimidine-3-carboxamide] | < 1 |  |
| Cc1ccc(-n2nc(-c3ccc(NS(C)(=O)=O)cc3)cc2NC(=O)c2cnn3cccnc23)cc1 [Example 103, N-(3-(4-(methylsulfonamido)phenyl)-1-(p-tolyl)-1H-pyrazol-5-yl)pyrazolo[1,5-a]pyrimidine-3-carboxamide] |  | < 0.1 |
| Cc1ccc(-n2nc(C3CCN(C4CCC(C#N)CC4)CC3)cc2NC(=O)c2cnn3cccnc23)cc1 (centres unmarked) [Example 253, N-{3-[1-(4-cyanocyclohexyl)piperidin-4-yl]-1-(4-methylphenyl)-1H-pyrazol-5-yl}pyrazolo[1,5-a]pyrimidine-3-carboxamide] |  | < 0.1 |
| Cc1cccc(-n2nc(C3CCN(S(=O)(=O)C4CC4)CC3)cc2NC(=O)c2cnn3cccnc23)c1 [Example 21, N-(3-(1-(cyclopropylsulfonyl)piperidin-4-yl)-1-(m-tolyl)-1H-pyrazol-5-yl)pyrazolo[1,5-a]pyrimidine-3-carboxamide] | < 1 |  |
| Cc1ccc(-n2nc(-c3cnn(CCS(C)(=O)=O)c3)cc2NC(=O)c2cnn3cccnc23)cc1 [Example 333, N-{1-(4-methylphenyl)-1′-[2-(methylsulfonyl)ethyl]-1H,1′H-3,4′-bipyrazol-5-yl}pyrazolo[1,5-a]pyrimidine-3-carboxamide] | < 1 |  |
| CN1CCC(c2cc(NC(=O)c3cnn4cccnc34)n(-c3ccc(C4CC4)cc3F)n2)CC1 [Example 398, N-(1-(4-cyclopropyl-2-fluorophenyl)-3-(1-methylpiperidin-4-yl)-1H-pyrazol-5-yl)pyrazolo[1,5-a]pyrimidine-3-carboxamide] |  | < 0.1 |
| Cc1ccc(-n2nc(C3CCN(S(=O)(=O)C4CCCC4)CC3)cc2NC(=O)c2cnn3cccnc23)cc1 [Example 25, N-(3-(1-(cyclopentylsulfonyl)piperidin-4-yl)-1-(p-tolyl)-1H-pyrazol-5-yl)pyrazolo[1,5-a]pyrimidine-3-carboxamide] | < 1 |  |
| Cc1ccc(-n2nc(C3CCN(S(=O)(=O)c4cc(F)cc(F)c4)CC3)cc2NC(=O)c2cnn3cccnc23)cc1 [Example 360, N-[3-{1-[(3,5-difluorophenyl)sulfonyl]piperidin-4-yl}-1-(4-methylphenyl)-1H-pyrazol-5-yl]pyrazolo[1,5-a]pyrimidine-3-carboxamide] | < 1 |  |
| Cc1ccc(-n2nc(C3CCN(C(C)c4nccs4)CC3)cc2NC(=O)c2cnn3cccnc23)cc1 (centres unmarked) [Example 217, N-[1-(4-methylphenyl)-3-{1-[1-(1,3-thiazol-2-yl)ethyl]piperidin-4-yl}-1H-pyrazol-5-yl]pyrazolo[1,5-a]pyrimidine-3-carboxamide] | < 1 |  |
| Cc1ccc(-n2nc(C3CCN(S(=O)(=O)c4ccc(C#N)cc4)CC3)cc2NC(=O)c2cnn3cccnc23)cc1 [Example 380, N-[3-{1-[(4-cyanophenyl)sulfonyl]piperidin-4-yl}-1-(4-methylphenyl)-1H-pyrazol-5-yl]pyrazolo[1,5-a]pyrimidine-3-carboxamide] | < 1 |  |
| Cc1ccc(-n2nc(C3(C)CCN(S(C)(=O)=O)CC3)cc2NC(=O)c2cnn3cccnc23)cc1 [Example 92, N-(3-(4-methyl-1-(methylsulfonyl)piperidin-4-yl)-1-(p-tolyl)-1H-pyrazol-5-yl)pyrazolo[1,5-a]pyrimidine-3-carboxamide] | > 1 |  |
| Cc1ccc(-n2nc(-c3ccc(=O)n(C)c3)cc2NC(=O)c2cnn3cccnc23)cc1 [Example 337, N-[3-(1-methyl-6-oxo-1,6-dihydropyridin-3-yl)-1-(4-methylphenyl)-1H-pyrazol-5-yl]pyrazolo[1,5-a]pyrimidine-3-carboxamide] | < 1 |  |
| CNS(=O)(=O)c1ccc(-c2cc(NC(=O)c3cnn4cc(Br)cnc34)n(-c3ccc(C)cn3)n2)cc1 [Example 194, 6-bromo-N-(1-(5-methylpyridin-2-yl)-3-(4-(N-methylsulfamoyl)phenyl)-1H-pyrazol-5-yl)pyrazolo[1,5-a]pyrimidine-3-carboxamide] |  | < 0.1 |
| CC(C)(CN)c1ccc(-n2nc(C3CCN(S(C)(=O)=O)CC3)cc2NC(=O)c2cnn3cccnc23)nc1 [Example 158, N-(1-(5-(1-amino-2-methylpropan-2-yl)pyridin-2-yl)-3-(1-(methylsulfonyl)piperidin-4-yl)-1H-pyrazol-5-yl)pyrazolo[1,5-a]pyrimidine-3-carboxamide] |  | < 0.1 |
| Cc1ccc(-n2nc(C3CCN(C4CCCOC4)CC3)cc2NC(=O)c2cnn3cc(Br)cnc23)cc1 (centres unmarked) [Example 109, 6-bromo-N-(3-(1-(tetrahydro-2H-pyran-3-yl)piperidin-4-yl)-1-(p-tolyl)-1H-pyrazol-5-yl)pyrazolo[1,5-a]pyrimidine-3-carboxamide] |  | < 0.1 |
| COc1ccc(S(=O)(=O)N2CCC(c3cc(NC(=O)c4cnn5cccnc45)n(-c4ccc(C)cc4)n3)CC2)cn1 [Example 389, N-[3-{1-[(6-methoxypyridin-3-yl)sulfonyl]piperidin-4-yl}-1-(4-methylphenyl)-1H-pyrazol-5-yl]pyrazolo[1,5-a]pyrimidine-3-carboxamide] | < 1 |  |
| Cc1ccc(-n2nc(C3CCN(S(=O)(=O)c4cn(C)cn4)CC3)cc2NC(=O)c2cnn3cccnc23)cc1 [Example 376, N-[3-{1-[(1-methyl-1H-imidazol-4-yl)sulfonyl]piperidin-4-yl}-1-(4-methylphenyl)-1H-pyrazol-5-yl]pyrazolo[1,5-a]pyrimidine-3-carboxamide] | < 1 |  |
| Cc1ccc(-n2nc(C3CN(Cc4cnccn4)C3)cc2NC(=O)c2cnn3cccnc23)cc1 [Example 304, N-{1-(4-methylphenyl)-3-[1-(pyrazin-2-ylmethyl)azetidin-3-yl]-1H-pyrazol-5-yl}pyrazolo[1,5-a]pyrimidine-3-carboxamide] | < 1 |  |
| Cc1ccc(-n2nc(C3CN(Cc4ncco4)C3)cc2NC(=O)c2cnn3cccnc23)cc1 [Example 316, N-{1-(4-methylphenyl)-3-[1-(1,3-oxazol-2-ylmethyl)azetidin-3-yl]-1H-pyrazol-5-yl}pyrazolo[1,5-a]pyrimidine-3-carboxamide] | < 1 |  |
